Measurements as given in patent US11564919B1, “Small molecule inhibitors for treatment of alpha viruses” (priority 2021, dated 2023).
Entries after “also recorded” stand apart in the source; their conditions may differ.

Experiments:
[1] = test system: CHIKV 181/25; format: cell-based, Chikungunya virus
[2] = test system: VEEV TC-83; format: cell-based, Venezuelan Equine Encephalitis Virus
[3] = test system: CHIKV-GFP reporter virus; assay: microbe, parasite or virus in culture; format: cell-based, Chikungunya virus (CHIKV) strain 181/25; conditions: for IC50: Chikungunya virus, HeLa, read-out: IC50 against CHIKV-GFP reporter virus
[4] = test system: CHIKV 181/25; format: cell-based, Chikungunya virus; remark: listed apart in the source
[5] = test system: Zika virus (ZIKV); format: cell-based
[6] = test system: HeLa cells; conditions: 30 μM, 48 hours
[7] = test system: A549 cells; conditions: 30 μM, 48 hours
[8] = test system: RVFV MP12; format: cell-based, Rift Valley fever virus

Structure (SMILES)	CHIKV 181/25 viral titer by time of compound addition [1]	percentage of VEEV TC-83 infected cells [2]	IC50 [3] [nM]	infection of CHIKV 181/25 [4]	ZIKV viral titer [5]	reduction of HeLa cell viability [6] [%]	reduction of A549 cell viability [7] [%]	CHIKV-GFP fluorescence, relative percent infection [3]	viral titer of RVFV [8]	VEEV TC-83 infection [2]
Sc1nnc2c(n1)[nH]c1ccccc12 [Compound III, 5H-[1,2,4]Triazino[5,6-b]indole-3-thiol]	relatively similar reduction of viral titer across all timepoints	reduced the percentage of VEEV TC-83 infected cells	2820	didn't reduce infection	some minimal effect	–	–	–	–	–
Cn1c(=N)sc2c3ccccc3ccc21 [Compound IV, 3-methyl-2H,b3H-naphtho[2,1-d][1,3]thiazol-2-imine]	strongest reduction with pre-treatment, with lessened efficacy at each consecutive timepoint; also recorded: consecutively reduced levels of efficacy at later timepoints	reduced the percentage of VEEV TC-83 infected cells	2590	–	strong reduction	23.8	29	greater inhibition of virus infection in HeLa cells	significantly reduced titer	–
O=C(/C=C/c1ccc2c(c1)OCO2)N1CCN(Cc2nc(-c3ccco3)cs2)CC1 [Compound I, (2E)-3-(2H-1,3-benzodioxol-5-yl)-1-(4-{[4-(furan-2-yl)-1,3-thiazol-2-yl]methyl}piperazin-1-yl)prop-2-en-1-one]	relatively similar reduction of viral titer across all timepoints	–	10900	–	no obvious reduction	–	–	more effective in A549 cells	minimal effectiveness	the only compound reducing VEEV TC-83 infection
